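Interpolation was linear, between the two tested concentrations surrounding the appropriate level; five concentrations were tested over 48 hours in 96-well plates. GI50 = concentration required for 50% inhibition of growth. TGI is the concentration that stops growth completely.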
These compounds were tested on TK-10 renal (assay: growth of human tumour cells (NCI), 48 h).

Compound | GI50 [µM] | TGI [µM]
COc1cc2c3c(n(CCNCCCNCCn4c5c(c6cc(OC)c(OC)cc6c4=O)C(=O)c4ccccc4-5)c(=O)c2cc1OC)-c1ccccc1C3=O | 2.9 | 21.7
COc1cc(O)c2c(c1)OCC(Cc1ccc(O)cc1)C2=O (configuration not stated) | – | > 100
Cc1ccc2c3c(c(=O)[nH]c2c1)C1(C(C#N)=C(N)O3)c2cc(Br)ccc2-c2ccc(Br)cc21 | 2.31 | 6.09

The compounds below were run on HS 578T breast (assay: growth of human tumour cells (NCI), 48 h).

Compound | TGI [µM] | GI50 [µM]
CCOC(=O)C1(C(=O)OCC)C[C@H](C)[C@](C)(O)C1 | > 100 | –
COc1cc2c3c(n(CCNCCCNCCn4c5c(c6cc(OC)c(OC)cc6c4=O)C(=O)c4ccccc4-5)c(=O)c2cc1OC)-c1ccccc1C3=O | > 100 | > 49
COc1cc(/C=C2\CN(C)CC3=C2NC(=S)NC3c2cc(OC)c(OC)c(OC)c2)cc(OC)c1OC (configuration not stated) | > 100 | –
CC(C)(C)[Si](C)(C)OCC1OC(n2cc(I)c(N)nc2=O)C(O[Si](C)(C)C(C)(C)C)C1O[Si](C)(C)C(C)(C)C (configuration not stated) | 36.6 | –
COc1cc(O)c2c(c1)OCC(Cc1ccc(O)cc1)C2=O (configuration not stated) | > 100 | –
Cc1ccc2c3c(c(=O)[nH]c2c1)C1(C(C#N)=C(N)O3)c2cc(Br)ccc2-c2ccc(Br)cc21 | 5.95 | 2.22

These compounds were tested on COLO 205 colon (assay: growth of human tumour cells (NCI), 48 h).

Compound | TGI [µM] | GI50 [µM]
CCOC(=O)C1(C(=O)OCC)C[C@H](C)[C@](C)(O)C1 | > 100 | –
COc1cc2c3c(n(CCNCCCNCCn4c5c(c6cc(OC)c(OC)cc6c4=O)C(=O)c4ccccc4-5)c(=O)c2cc1OC)-c1ccccc1C3=O | 1.01 | 0.121
COc1cc(/C=C2\CN(C)CC3=C2NC(=S)NC3c2cc(OC)c(OC)c(OC)c2)cc(OC)c1OC (configuration not stated) | > 100 | –
CC(C)(C)[Si](C)(C)OCC1OC(n2cc(I)c(N)nc2=O)C(O[Si](C)(C)C(C)(C)C)C1O[Si](C)(C)C(C)(C)C (configuration not stated) | 36.3 | –
COc1cc(O)c2c(c1)OCC(Cc1ccc(O)cc1)C2=O (configuration not stated) | > 100 | –
Cc1ccc2c3c(c(=O)[nH]c2c1)C1(C(C#N)=C(N)O3)c2cc(Br)ccc2-c2ccc(Br)cc21 | 3.82 | 1.87

The compounds below were run on SR leukemia (assay: growth of human tumour cells (NCI), 48 h).

Compound | TGI [µM] | GI50 [µM]
CCOC(=O)C1(C(=O)OCC)C[C@H](C)[C@](C)(O)C1 | > 100 | –
COc1cc2c3c(n(CCNCCCNCCn4c5c(c6cc(OC)c(OC)cc6c4=O)C(=O)c4ccccc4-5)c(=O)c2cc1OC)-c1ccccc1C3=O | 0.702 | 0.0191
COc1cc(/C=C2\CN(C)CC3=C2NC(=S)NC3c2cc(OC)c(OC)c(OC)c2)cc(OC)c1OC (configuration not stated) | > 100 | –
CC(C)(C)[Si](C)(C)OCC1OC(n2cc(I)c(N)nc2=O)C(O[Si](C)(C)C(C)(C)C)C1O[Si](C)(C)C(C)(C)C (configuration not stated) | 81.7 | –
COc1cc(O)c2c(c1)OCC(Cc1ccc(O)cc1)C2=O (configuration not stated) | > 100 | –
Cc1ccc2c3c(c(=O)[nH]c2c1)C1(C(C#N)=C(N)O3)c2cc(Br)ccc2-c2ccc(Br)cc21 | 14.5 | 2.36

These compounds were tested on NCI-H23 lung (assay: growth of human tumour cells (NCI), 48 h).

Compound | TGI [µM] | GI50 [µM]
CCOC(=O)C1(C(=O)OCC)C[C@H](C)[C@](C)(O)C1 | > 100 | –
COc1cc2c3c(n(CCNCCCNCCn4c5c(c6cc(OC)c(OC)cc6c4=O)C(=O)c4ccccc4-5)c(=O)c2cc1OC)-c1ccccc1C3=O | 17 | 1.2
COc1cc(O)c2c(c1)OCC(Cc1ccc(O)cc1)C2=O (configuration not stated) | > 100 | –
Cc1ccc2c3c(c(=O)[nH]c2c1)C1(C(C#N)=C(N)O3)c2cc(Br)ccc2-c2ccc(Br)cc21 | 4.62 | 2.11

These compounds were tested on OVCAR-5 ovarian (assay: growth of human tumour cells (NCI), 48 h).

Compound | TGI [µM] | GI50 [µM]
CCOC(=O)C1(C(=O)OCC)C[C@H](C)[C@](C)(O)C1 | > 100 | –
COc1cc2c3c(n(CCNCCCNCCn4c5c(c6cc(OC)c(OC)cc6c4=O)C(=O)c4ccccc4-5)c(=O)c2cc1OC)-c1ccccc1C3=O | 7.56 | 0.732
COc1cc(O)c2c(c1)OCC(Cc1ccc(O)cc1)C2=O (configuration not stated) | > 100 | –
Cc1ccc2c3c(c(=O)[nH]c2c1)C1(C(C#N)=C(N)O3)c2cc(Br)ccc2-c2ccc(Br)cc21 | 4.75 | 2.02

What follows are compounds tested on OVCAR-4 ovarian (assay: growth of human tumour cells (NCI), 48 h).

Compound | TGI [µM] | GI50 [µM]
CCOC(=O)C1(C(=O)OCC)C[C@H](C)[C@](C)(O)C1 | > 100 | –
COc1cc2c3c(n(CCNCCCNCCn4c5c(c6cc(OC)c(OC)cc6c4=O)C(=O)c4ccccc4-5)c(=O)c2cc1OC)-c1ccccc1C3=O | 20.3 | 1.6
COc1cc(/C=C2\CN(C)CC3=C2NC(=S)NC3c2cc(OC)c(OC)c(OC)c2)cc(OC)c1OC (configuration not stated) | > 100 | –
COc1cc(O)c2c(c1)OCC(Cc1ccc(O)cc1)C2=O (configuration not stated) | > 100 | –
Cc1ccc2c3c(c(=O)[nH]c2c1)C1(C(C#N)=C(N)O3)c2cc(Br)ccc2-c2ccc(Br)cc21 | 3.3 | 1.72

The compounds below were run on RXF 393 renal (assay: growth of human tumour cells (NCI), 48 h).

Compound | TGI [µM] | GI50 [µM]
CCOC(=O)C1(C(=O)OCC)C[C@H](C)[C@](C)(O)C1 | > 100 | –
COc1cc2c3c(n(CCNCCCNCCn4c5c(c6cc(OC)c(OC)cc6c4=O)C(=O)c4ccccc4-5)c(=O)c2cc1OC)-c1ccccc1C3=O | 12.1 | 1.14
COc1cc(O)c2c(c1)OCC(Cc1ccc(O)cc1)C2=O (configuration not stated) | > 100 | –

Reference: PubChem BioAssay (NCI)
